From patent US20240123015A1, “COMPOSITION FOR STRENGTHENING, DEVELOPING, DIFFERENTIATING, OR REGENERATING MUSCLE, OR PREVENTING, AMELIORATING, OR TREATING MUSCLE LOSS OR MUSCLE FATIGUE COMPRISING SCHIZONEPETA TENUIFOLIA EXTRACT AS EFFECTIVE COMPONENT” (KOREA INSTITUTE OF ORIENTAL MEDICINE, priority 2021, published 2024)

How the values were obtained:
[1] = test system: C2C12 cells; assay: Viability recovery of muscle cells under H2O2 oxidative stress (CCK8); type: cell-based, mouse; settings: H2O2 250 μM alone; compared to control group
Procedure: Mouse myoblast cell line (i.e., C2C12 cells) was purchased from ATCC (Manassas, VA, USA) and cultured at conditions of 37° C. and 5% CO2 in DMEM medium containing 10% fetal bovine serum. Once the cultured cells reached 80% confluency, the medium was replaced with other DMEM medium (Gibco) containing 2% horse serum, 100 units/ml of penicillin, and 100 μg/ml of streptomycin to induce cell differentiation. The cells were cultured for 5 days after replacing the medium to induce cell differentiation. The culture medium was replaced with fresh medium every 2 days during the differentiation process. To induce muscular atrophy, the cells were treated with H2O2 at a final concentration of 250 μM. Concurrently, the cells were treated with Schizonepeta tenuifolia extract obtained from Example 1 at a concentration of 100 μg/ml. After treating the cells with Schizonepeta tenuifolia extract and culturing them for 24 hours, the medium was replaced with fresh medium containing 10% CCK8 (Dojindo) solution. After incubating for 2 hours, the absorbance was measured at 450 nm to evaluate cell viability. Each sample was measured three times, and the mean value was calculated.

[2] = test system: BALB/c mice; assay: Fatigue-related factors (LDH, AST, ALT) in blood serum; type: in vivo, mouse; settings: dexamethasone 25 mg/kg
Procedure: The extract prepared as a dry powder was dissolved in physiological saline and used for the administration. After two weeks of oral administration of the test sample, the evaluation was made by Rotarod test and also in terms of a change in fatigue-related factors in the blood.
At the end of the 1-hour time point after the oral administration of each test material for 2 weeks, the Rotarod test was carried out, and blood samples were collected immediately from the animal heart. The collected blood was centrifuged at 3,000 rpm, 4° C. for 15 minutes to separate the blood serum, which was then stored at −70° C. until further analysis. Thereafter, concentrations of lactate dehydrogenase (LDH), aspartate aminotransferase (AST), and alanine aminotransferase (ALT) in the blood serum were measured by using a biochemical analyzer (AU480 chemistry analyzer, Beckman Coulter Inc., Brea, CA, USA).

[3] = test system: BALB/c mice; assay: Rotarod test in dexamethasone-induced animal model of fatigue; type: in vivo, mouse; settings: positive control 50 mg/kg, 2 weeks, 20 rpm
Procedure: A 6-week-old male BALB/c mice was purchased from Orient Bio Inc. (Seongnam, South Korea) and used them for the test. The test animals were acclimated for one week in a breeding environment with a temperature of 25±2° C., humidity of 50±5%, and a 12-hour light-dark cycle, while being provided with ad libitum access to a standard diet (AIN-76A diet) and water. After the acclimation period, the animals were used for the test. The animal test of the present invention was carried out after obtaining an approval of Korea Institute of Oriental Medicine Institutional Animal Care and Use Committee.
The acclimated mice were randomly assigned to different groups: the normal group (Normal), the group administered with dexamethasone group (25 mg/kg), the group administered with Schizonepeta tenuifolia extract (HG, 200 mg/kg), and the positive control group administered with oxymetholone (50 mg/kg). Each group consisted of 6 mice. […]
Mouse was orally administered for 2 weeks with each test material, and then placed on the rod of a Rotarod apparatus and rotated at a speed of 20 rpm. The time until the mouse fell off the rod was then measured. […] The mean value of the three measurements for each animal was taken as the test result value, and the mean and standard deviation were calculated for each group of the six animals.

For `OO` [H2O2], the cell viability [1] was “statistically significant decrease in cell viability”.
With `C[C@@H]1C[C@H]2[C@@H]3CCC4=CC(=O)C=C[C@]4(C)[C@@]3(F)[C@@H](O)C[C@]2(C)[C@@]1(O)C(=O)CO` [dexamethasone] the “LDH level in blood serum” value [2] was “elevated levels”, the “ALT level in blood serum” value ([2]; compared to normal group) was “statistically significant increase” and the “AST level in blood serum” value ([2]; compared to normal group) was “statistically significant increase”.
In the case of `C[C@]12C/C(=C/O)C(=O)C[C@@H]1CC[C@@H]1[C@@H]2CC[C@@]2(C)[C@H]1CC[C@]2(C)O` [oxymetholone], the “hanging time on the Rotarod” value [3] is reported as “statistically significant increase in the time spent hanging on the Rotarod”.
